Patent publication US6706663B2, “Herbicidal 3-heterocyclic substituted benzisothiazole and benzisoxazole compounds” (Wyeth, priority 2000, dated 2004)

Columns and labels:
ZEAMX (Corn, Field) = test: Preemergence herbicidal evaluation; format: in vivo, Zea mays, L.; settings: rated 4-5 weeks after treatment
[1] = tested on: MOOVA (Monochoria vaginalis); test: Flooded paddy, preemergence weed control; format: in vivo, Presl.; settings: rated 3-4 weeks after treatment, 0-9 rating scale
Procedure, shortened: (§1)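 Visual 0-9 rating versus control, scoring stand, vigor, malformation, size, chlorosis and overall appearance. Silt loam soil, propagules in top 0.5 cm; flood depth 1.5–3 cm held for the whole test; greenhouse.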

[2] = tested on: TRZAWR (Wheat, Winter, cv Riband); test: Preemergence herbicidal evaluation; format: in vivo, Triticum aestivum; settings: rated 4-5 weeks after treatment
Procedure, shortened: (§2)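 Visual 0–9 rating versus control (stand, vigor, malformation, size, chlorosis, overall appearance), scored four to five weeks post-treatment. Preemergence spray of aqueous acetone solution onto freshly seeded soil cups; plants grown under conventional greenhouse care.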

[3] = tested on: GLXMAW (Soybean, Williams); test: Postemergence herbicidal evaluation; format: in vivo, Glycine max, (L.) Merr. cv Williams; settings: postemergence
Procedure, shortened: (§3)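 Seedlings grown about two weeks in flats, sprayed, then kept under standard greenhouse care. Rated visually 4–5 weeks after treatment on a 0–9 scale (stand, vigour, malformation, size, chlorosis, overall appearance) relative to untreated control; repeat tests averaged.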

[4] = tested on: IPOHE (Ipomoea hederacea); test: Preemergence herbicidal evaluation; format: in vivo, (L.) Jacq.; settings: rated 4-5 weeks after treatment
[5] = tested on: ABUTH (Abutilon theophrasti); test: Postemergence herbicidal evaluation; format: in vivo, Medic.; settings: postemergence
Procedure, shortened: as §3

ORYSAT (Rice, Tebonnet) [6] = test: Flooded paddy, post-transplant rice tolerance; format: in vivo, Oryza sativa, (L.) Tebonnet; settings: flooded paddy, post-transplant rice, rated 3-4 weeks after treatment, 0-9 rating scale
Procedure, shortened: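 Steps: transplant two ten-day-old seedlings into silt loam; flood to 1.5-3 cm above soil; apply herbicide post-transplant; maintain water on greenhouse benches; rate stand, vigor, malformation, size and chlorosis on a 0-9 visual scale versus control.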

ORYSAT (Rice, Tebonnet) [7] = test: Postemergence herbicidal evaluation; format: in vivo, Oryza sativa, (L.) Tebonnet; settings: postemergence
Procedure, shortened: as §3

[8] = tested on: CHEAL (Chenopodium album); test: Postemergence herbicidal evaluation; format: in vivo, L.; settings: postemergence
Procedure, shortened: as §3

[9] = tested on: CASOB (Cassia obtusifolia); test: Postemergence herbicidal evaluation; format: in vivo, L.; settings: postemergence
Procedure, shortened: as §3

[10] = tested on: AMBEL (Ambrosia artemisifolia); test: Postemergence herbicidal evaluation; format: in vivo, L.; settings: postemergence
Procedure, shortened: as §3

[11] = tested on: IPOHE (Ipomoea hederacea); test: Postemergence herbicidal evaluation; format: in vivo, (L.) Jacq.; settings: postemergence
Procedure, shortened: as §3

[12] = tested on: ABUTH (Abutilon theophrasti); test: Preemergence herbicidal evaluation; format: in vivo, Medic.; settings: rated 4-5 weeks after treatment
[13] = tested on: CHEAL (Chenopodium album); test: Preemergence herbicidal evaluation; format: in vivo, L.; settings: rated 4-5 weeks after treatment
Procedure, shortened: as §2

[14] = tested on: CASOB (Cassia obtusifolia); test: Preemergence herbicidal evaluation; format: in vivo, L.; settings: rated 4-5 weeks after treatment
Procedure, shortened: as §2

[15] = tested on: AMBEL (Ambrosia artemisifolia); test: Preemergence herbicidal evaluation; format: in vivo, L.; settings: rated 4-5 weeks after treatment
Procedure, shortened: as §2

CYPIR (Cyperus iria) = test: Flooded paddy, preemergence weed control; format: in vivo; settings: rated 3-4 weeks after treatment, 0-9 rating scale
Procedure, shortened: as §1

[16] = tested on: ECHCG (Echinochloa crus-galli); test: Preemergence herbicidal evaluation; format: in vivo, (L.) Beau; settings: rated 4-5 weeks after treatment
Procedure, shortened: as §2

SETVI (Setaria viridis) = test: Preemergence herbicidal evaluation; format: in vivo, (L.) Beau; settings: rated 4-5 weeks after treatment
Procedure, shortened: as §2

[17] = tested on: GLXMAW (Soybean, Williams); test: Preemergence herbicidal evaluation; format: in vivo, Glycine max, (L.) Merr. cv Williams; settings: rated 4-5 weeks after treatment

## Cn1c(C(F)(F)F)cc(=O)n(-c2ccc3snc(-c4ccco4)c3c2)c1=O [Compound 60, 3-[3-(2-furyl)-1,2-benzisothiazol-5-yl]-1-methyl-6-(trifluoromethyl)uracil]
ZEAMX (Corn, Field); Rate 0.0620 kg/ha
  Preemergence herbicidal rating ZEAMX: 3.0
ZEAMX (Corn, Field); Rate 0.1250 kg/ha
  Preemergence herbicidal rating ZEAMX: 5.0
ZEAMX (Corn, Field); Rate 0.2500 kg/ha
  Preemergence herbicidal rating ZEAMX: 6.0
[1]; rate 0.0080 kg/ha
  herbicidal rating, MOOVA: 0.0
[1]; rate 0.0320 kg/ha
  herbicidal rating, MOOVA: 9.0
[1]; rate 0.1250 kg/ha
  herbicidal rating, MOOVA: 9.0
[2]; Rate 0.0620 kg/ha
  Preemergence herbicidal rating TRZAWR: 1.0
[2]; Rate 0.1250 kg/ha
  Preemergence herbicidal rating TRZAWR: 4.0
[2]; Rate 0.2500 kg/ha
  Preemergence herbicidal rating TRZAWR: 6.0
[3]; rate 0.0320 kg/ha
  GLXMAW herbicidal rating: 5.0
[3]; rate 0.0620 kg/ha
  GLXMAW herbicidal rating: 7.0
[4]; Rate 0.0620 kg/ha
  Preemergence herbicidal rating IPOHE: 0.0
[4]; Rate 0.1250 kg/ha
  Preemergence herbicidal rating IPOHE: 0.0
[4]; Rate 0.2500 kg/ha
  Preemergence herbicidal rating IPOHE: 9.0
[5]; rate 0.0320 kg/ha
  ABUTH herbicidal rating: 9.0
[5]; rate 0.0620 kg/ha
  ABUTH herbicidal rating: 9.0
ORYSAT (Rice, Tebonnet) [6]; rate 0.0080 kg/ha
  herbicidal rating, ORYSAT (rice tolerance): 0.0
ORYSAT (Rice, Tebonnet) [6]; rate 0.0320 kg/ha
  herbicidal rating, ORYSAT (rice tolerance): 1.5
ORYSAT (Rice, Tebonnet) [6]; rate 0.1250 kg/ha
  herbicidal rating, ORYSAT (rice tolerance): 2.5
ORYSAT (Rice, Tebonnet) [7]; rate 0.0320 kg/ha
  ORYSAT herbicidal rating: 3.5
ORYSAT (Rice, Tebonnet) [7]; rate 0.0620 kg/ha
  ORYSAT herbicidal rating: 4.0
[8]; rate 0.0320 kg/ha
  CHEAL herbicidal rating: 6.0
[8]; rate 0.0620 kg/ha
  CHEAL herbicidal rating: 5.0
[9]; rate 0.0320 kg/ha
  CASOB herbicidal rating: 1.0
[9]; rate 0.0620 kg/ha
  CASOB herbicidal rating: 4.0
[10]; rate 0.0320 kg/ha
  AMBEL herbicidal rating: 9.0
[10]; rate 0.0620 kg/ha
  AMBEL herbicidal rating: 9.0
[11]; rate 0.0320 kg/ha
  IPOHE herbicidal rating: 9.0
[11]; rate 0.0620 kg/ha
  IPOHE herbicidal rating: 9.0
[12]; Rate 0.0620 kg/ha
  Preemergence herbicidal rating ABUTH: 5.0
[12]; Rate 0.1250 kg/ha
  Preemergence herbicidal rating ABUTH: 5.0
[12]; Rate 0.2500 kg/ha
  Preemergence herbicidal rating ABUTH: 9.0
[13]; Rate 0.0620 kg/ha
  Preemergence herbicidal rating CHEAL: 7.0
[13]; Rate 0.1250 kg/ha
  Preemergence herbicidal rating CHEAL: 9.0
[13]; Rate 0.2500 kg/ha
  Preemergence herbicidal rating CHEAL: 9.0
[14]; Rate 0.0620 kg/ha
  Preemergence herbicidal rating CASOB: 0.0
[14]; Rate 0.1250 kg/ha
  Preemergence herbicidal rating CASOB: 0.0
[14]; Rate 0.2500 kg/ha
  Preemergence herbicidal rating CASOB: 0.0
[15]; Rate 0.0620 kg/ha
  Preemergence herbicidal rating AMBEL: 0.0
[15]; Rate 0.1250 kg/ha
  Preemergence herbicidal rating AMBEL: 5.0
[15]; Rate 0.2500 kg/ha
  Preemergence herbicidal rating AMBEL: 9.0
CYPIR (Cyperus iria); rate 0.0080 kg/ha
  herbicidal rating, CYPIR: 0.0
CYPIR (Cyperus iria); rate 0.0320 kg/ha
  herbicidal rating, CYPIR: 6.0
CYPIR (Cyperus iria); rate 0.1250 kg/ha
  herbicidal rating, CYPIR: 7.0
[16]; Rate 0.0620 kg/ha
  Preemergence herbicidal rating ECHCG: 1.0
[16]; Rate 0.1250 kg/ha
  Preemergence herbicidal rating ECHCG: 6.0
[16]; Rate 0.2500 kg/ha
  Preemergence herbicidal rating ECHCG: 7.0
SETVI (Setaria viridis); Rate 0.0620 kg/ha
  Preemergence herbicidal rating SETVI: 3.0
SETVI (Setaria viridis); Rate 0.1250 kg/ha
  Preemergence herbicidal rating SETVI: 7.0
SETVI (Setaria viridis); Rate 0.2500 kg/ha
  Preemergence herbicidal rating SETVI: 9.0
[17]; Rate 0.0620 kg/ha
  Preemergence herbicidal rating GLXMAW: 1.0
[17]; Rate 0.1250 kg/ha
  Preemergence herbicidal rating GLXMAW: 3.0
[17]; Rate 0.2500 kg/ha
  Preemergence herbicidal rating GLXMAW: 4.0
